Experimental data taken from patent US10793563B2, “GCN2 inhibitors and uses thereof” (Merck Patent GmbH, priority 2018, dated 2020).

The molecules below were run against GCN2 kinase (Homo sapiens (Human), UniProt Q9P2K8) (assay: GCN2 Enzyme Inhibition Assay (Transcreener ADP2 fluorescence polarization)). Conditions: 280 μM ATP, 200 μM (RS)7 peptide, 4 nM GCN2, 25° C.
Assay type: biochemical
Protocol: Compounds were screened for their ability to inhibit GCN2 kinase activity using a Transcreener® ADP^2 fluorescence polarization assay that detects ADP levels (BellBrook Labs, WI). Assays were carried out in a buffer consisting of 25 mM Tris-HCl (pH 7.5), 50 mM NaCl, 10 mM MgCl2 and 1 mM DTT. […] Assays were carried out at 25° C. in the presence of a (typical) final concentration of 4 nM GCN2 kinase. An assay buffer containing GCN2 kinase and (RS)7 was prepared. […] The plate was incubated for 10 minutes at 25° C. prior to the addition of 4.7 μL of ATP stock buffer to initiate the enzyme reaction. The reaction was allowed to proceed for 1 hour at 25° C., prior to the addition of 10 μL detection buffer (consisting of appropriate concentrations of ADP^2 antibody and ADP Alexa633 tracer in 1× stop and detect buffer as supplied by BellBrook Labs). […] Percentage inhibition of enzyme activity was then calculated at each compound dose. IC50 and Ki(app) (using known assay and kinetic parameters) values were calculated from percentage inhibition data using a non-linear, tight-binding algorithm. All data analysis was undertaken using the Screener® software package (Genedata, Switzerland).

Chain of GCN2 kinase (Q9P2K8 whole entry): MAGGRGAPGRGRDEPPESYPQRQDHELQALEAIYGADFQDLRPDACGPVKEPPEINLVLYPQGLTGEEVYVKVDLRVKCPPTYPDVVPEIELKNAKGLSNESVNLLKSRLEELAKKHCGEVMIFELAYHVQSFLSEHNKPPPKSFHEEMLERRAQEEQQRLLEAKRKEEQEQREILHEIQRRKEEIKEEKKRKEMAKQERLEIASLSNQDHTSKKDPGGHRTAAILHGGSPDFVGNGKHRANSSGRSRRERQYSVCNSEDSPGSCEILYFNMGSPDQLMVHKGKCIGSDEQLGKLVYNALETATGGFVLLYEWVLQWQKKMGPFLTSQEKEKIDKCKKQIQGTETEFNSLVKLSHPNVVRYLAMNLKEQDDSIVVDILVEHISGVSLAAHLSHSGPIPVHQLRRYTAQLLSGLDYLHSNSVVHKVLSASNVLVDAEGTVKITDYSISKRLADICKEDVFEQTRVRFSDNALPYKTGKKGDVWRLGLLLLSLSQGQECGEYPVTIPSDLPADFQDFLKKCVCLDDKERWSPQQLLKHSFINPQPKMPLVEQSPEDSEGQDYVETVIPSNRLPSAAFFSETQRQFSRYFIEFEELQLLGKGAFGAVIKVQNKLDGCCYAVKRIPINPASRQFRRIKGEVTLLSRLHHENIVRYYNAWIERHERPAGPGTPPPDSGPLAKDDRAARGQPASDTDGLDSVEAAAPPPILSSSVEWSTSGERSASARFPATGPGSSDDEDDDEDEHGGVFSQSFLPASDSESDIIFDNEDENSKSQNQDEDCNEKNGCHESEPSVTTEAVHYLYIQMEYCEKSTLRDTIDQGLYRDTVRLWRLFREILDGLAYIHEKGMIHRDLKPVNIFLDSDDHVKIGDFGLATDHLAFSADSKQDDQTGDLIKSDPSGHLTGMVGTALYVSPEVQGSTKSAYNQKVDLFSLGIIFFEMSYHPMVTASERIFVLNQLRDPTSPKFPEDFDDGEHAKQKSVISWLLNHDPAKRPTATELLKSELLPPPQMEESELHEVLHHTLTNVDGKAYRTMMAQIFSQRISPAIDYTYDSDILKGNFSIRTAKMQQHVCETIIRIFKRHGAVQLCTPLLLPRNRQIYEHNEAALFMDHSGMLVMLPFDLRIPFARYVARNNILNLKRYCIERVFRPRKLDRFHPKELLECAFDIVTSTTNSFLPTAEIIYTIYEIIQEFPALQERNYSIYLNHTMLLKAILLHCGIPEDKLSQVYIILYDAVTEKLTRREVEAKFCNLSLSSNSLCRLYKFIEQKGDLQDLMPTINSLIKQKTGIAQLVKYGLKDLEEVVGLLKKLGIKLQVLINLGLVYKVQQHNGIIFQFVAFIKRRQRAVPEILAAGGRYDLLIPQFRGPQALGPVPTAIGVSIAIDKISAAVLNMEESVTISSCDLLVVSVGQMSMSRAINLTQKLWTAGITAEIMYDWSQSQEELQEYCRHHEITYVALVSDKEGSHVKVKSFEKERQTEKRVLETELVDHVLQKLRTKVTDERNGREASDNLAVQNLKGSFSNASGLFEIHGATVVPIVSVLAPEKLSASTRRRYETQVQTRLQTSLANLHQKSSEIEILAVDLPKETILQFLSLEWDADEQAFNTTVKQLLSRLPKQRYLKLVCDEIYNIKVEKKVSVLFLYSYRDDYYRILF

| IC50 [nM] | Structure (SMILES) |
| --- | --- |
| 10 to 100 | FC1(F)CCC(N2CCN(c3ccnc(-c4cnc5ccc(C(F)(F)F)cn45)n3)CC2c2cn[nH]c2)CC1 (stereo not drawn) [I-460, 3-(4-(4-(4,4-difluorocyclohexyl)-3-(1H-pyrazol-4-yl)piperazin-1-yl)pyrimidin-2-yl)-6-(trifluoromethyl)imidazo[1,2-a]pyridine] |
| 100 to 1000 | CC1CN(c2ccnc(-c3cnc4ccc(C(F)(F)F)cn34)n2)CC(C#N)O1 (stereo not drawn) [I-331, 6-methyl-4-(2-(6-(trifluoromethyl)imidazo[1,2-a]pyridin-3-yl)pyrimidin-4-yl)morpholine-2-carbonitrile] |
| 100 to 1000 | Cc1oncc1C(=O)N1CCN(c2ccnc(-c3cnc4ccc(C(F)(F)F)cn34)n2)C[C@H]1c1cn[nH]c1 [I-550, (R)-(2-(1H-pyrazol-4-yl)-4-(2-(6-(trifluoromethyl)imidazo[1,2-a]pyridin-3-yl)pyrimidin-4-yl)piperazin-1-yl)(5-methylisoxazol-4-yl)methanone] |
| 100 to 1000 | Cc1nnc(C2CN(c3ccnc(-c4cnc5ccc(C(F)(F)F)cn45)n3)CCN2)[nH]1 (stereo not drawn) [I-337, 3-(4-(3-(5-methyl-4H-1,2,4-triazol-3-yl)piperazin-1-yl)pyrimidin-2-yl)-6-(trifluoromethyl)imidazo[1,2-a]pyridine] |
| < 10 | CC1C(C(N)=O)NCCN1c1ccnc(-c2cnc3ccc(C(F)(F)F)cn23)n1 (stereo not drawn) [I-380, 3-methyl-4-{2-[6-(trifluoromethyl)imidazo[1,2-a]pyridin-3-yl]pyrimidin-4-yl}piperazine-2-carboxamide] |
| < 10 | C[C@H]1CN(c2ccnc(-c3cnc4ccc(C(F)(F)F)cn34)n2)C[C@@H](C(N)=O)O1 [I-264, (2S,6S)-6-methyl-4-(2-(6-(trifluoromethyl)imidazo[1,2-a]pyridin-3-yl)pyrimidin-4-yl)morpholine-2-carboxamide] |
| 100 to 1000 | COc1cc(C(=O)N2CCN(c3ccnc(-c4cnc5ccc(C(F)(F)F)cn45)n3)CC2c2cn[nH]c2)ccn1 (stereo not drawn) [I-452, (2-(1H-pyrazol-4-yl)-4-(2-(6-(trifluoromethyl)imidazo[1,2-a]pyridin-3-yl)pyrimidin-4-yl)piperazin-1-yl)(2-methoxypyridin-4-yl)methanone] |
| 100 to 1000 | CC1(O)CC(C(=O)N2CCN(c3ccnc(-c4cnc5ccc(C(F)(F)F)cn45)n3)CC2c2cn[nH]c2)C1 (stereo not drawn) [I-509, (2-(1H-pyrazol-4-yl)-4-(2-(6-(trifluoromethyl)imidazo[1,2-a]pyridin-3-yl)pyrimidin-4-yl)piperazin-1-yl)(3-hydroxy-3-methylcyclobutyl)methanone] |
| 100 to 1000 | C[C@@H]1CN(c2ccnc(-c3cnc4ccc(C(F)(F)F)cn34)n2)C[C@H](C)N1C(=O)c1cc2n(n1)CCOC2 [I-513, (6,7-dihydro-4H-pyrazolo[5,1-c][1,4]oxazin-2-yl)(cis-2,6-dimethyl-4-(2-(6-(trifluoromethyl)imidazo[1,2-a]pyridin-3-yl)pyrimidin-4-yl)piperazin-1-yl)methanone] |

Further lines, the molecule ahead of its results:

| Structure (SMILES) | IC50 [nM] |
| --- | --- |
| Cc1nn(C)cc1[C@H]1C[C@H](C)CN(c2nccc(-c3cnc4ccc(C(F)(F)F)cn34)n2)C1 [I-139, 3-(2-((3R,5S)-3-(1,3-dimethyl-1H-pyrazol-4-yl)-5-methylpiperidin-1-yl)pyrimidin-4-yl)-6-(trifluoromethyl)imidazo[1,2-a]pyridine] | 100 to 1000 |
| O=C(O)C1CN(c2ccnc(-c3cnc4ccc(C(F)(F)F)cn34)n2)CC(F)(F)C1 (stereo not drawn) [I-205, 5,5-Difluoro-1-[2-(6-trifluoromethyl-imidazo[1,2-a]pyridin-3-yl)-pyrimidin-4-yl]-piperidine-3-carboxylic acid] | 10 to 100 |
| CC1C(C(N)=O)NCCN1c1ccnc(-c2cnc3cc(F)c(C4CC4)cn23)n1 (stereo not drawn) [I-427, 4-(2-(6-cyclopropyl-7-fluoroimidazo[1,2-a]pyridin-3-yl)pyrimidin-4-yl)-3-methylpiperazine-2-carboxamide] | 10 to 100 |
| Cc1nnc(C)n1[C@@H]1C[C@@H](C)CN(c2nccc(-c3cnc4ccc(C(F)(F)F)cn34)n2)C1 [I-467, 3-(2-((3R,5R)-3-(3,5-dimethyl-4H-1,2,4-triazol-4-yl)-5-methylpiperidin-1-yl)pyrimidin-4-yl)-6-(trifluoromethyl)imidazo[1,2-a]pyridine] | 10 to 100 |
| Cc1noc([C@@H]2CN(c3ccnc(-c4cnc5cc(F)c(C6CC6)cn45)n3)C[C@H](C)O2)n1 [I-341, (2S,6S)-4-(2-(6-cyclopropyl-7-fluoroimidazo[1,2-a]pyridin-3-yl)pyrimidin-4-yl)-2-methyl-6-(3-methyl-1,2,4-oxadiazol-5-yl)morpholine] | 100 to 1000 |
| NC(=O)[C@H]1CN(c2ccnc(-c3cnc4cc(F)c(Cl)cn34)n2)CCN1C1CC1 [I-425, (R)-4-(2-(6-chloro-7-fluoroimidazo[1,2-a]pyridin-3-yl)pyrimidin-4-yl)-1-cyclopropylpiperazine-2-carboxamide] | 100 to 1000 |
| C[C@H]1[C@H](C(N)=O)NCCN1c1ccnc(-c2cnc3cc(F)c(C4CC4)cn23)n1 [I-454, (2R,3 S)-4-(2-(6-cyclopropyl-7-fluoroimidazo[1,2-a]pyridin-3-yl)pyrimidin-4-yl)-3-methylpiperazine-2-carboxamide] | 10 to 100 |
| CS(=O)(=O)NCC1C[C@@H]2CC[C@H]1N(c1ccnc(-c3cnc4ccc(C(F)F)cn34)n1)C2 (stereo partly drawn) [I-394, N-(((1R,4S)-2-(2-(6-(difluoromethyl)imidazo[1,2-a]pyridin-3-yl)pyrimidin-4-yl)-2-azabicyclo[2.2.2]octan-6-yl)methyl)methanesulfonamide] | 100 to 1000 |
| NC1CN(c2ccnc(-c3cnc4ccc(Cl)cn34)n2)CC[C@H]1O (stereo in doubt) [I-255, (3R,4R)-3-amino-1-(2-(6-chloroimidazo[1,2-a]pyridin-3-yl)pyrimidin-4-yl)piperidin-4-ol] | 100 to 1000 |
| C[C@@H]1CN(c2nccc(-c3cnc4ccc(C(F)(F)F)cn34)n2)C[C@H](c2nn[nH]n2)O1 [I-190, (2R,6R)-2-methyl-6-(2H-tetrazol-5-yl)-4-(4-(6-(trifluoromethyl)imidazo[1,2-a]pyridin-3-yl)pyrimidin-2-yl)morpholine] | 100 to 1000 |
| Cc1noc([C@@H]2CN(c3ccnc(-c4cnc5ccc(C(F)F)cn45)n3)C[C@H](C)O2)n1 [I-498, (2S,6S)-4-(2-(6-(difluoromethyl)imidazo[1,2-a]pyridin-3-yl)pyrimidin-4-yl)-2-methyl-6-(3-methyl-1,2,4-oxadiazol-5-yl)morpholine] | 10 to 100 |

Same assay, conditions: Ki(app); 280 μM ATP, 200 μM (RS)7 peptide, 4 nM GCN2, 25° C.

| Structure (SMILES) | Ki [nM] |
| --- | --- |
| FC(F)(F)c1ccc2ncc(-c3nccc(N4CCCC(c5cn[nH]c5)C4)n3)n2c1 (stereo not drawn) [I-101, 4-[3-(1H-pyrazol-4-yl)piperidin-1-yl]-2-[6-(trifluoromethyl)imidazo[1,2-a]pyridin-3-yl]pyrimidine] | < 10 |
| Cc1nnc([C@@H]2CN(c3ccnc(-c4cnc5ccc(Cl)cn45)n3)C[C@H](C)O2)o1 (relative stereo) [I-95, cis-4-(2-{6-chloroimidazo[1,2-a]pyridin-3-yl}pyrimidin-4-yl)-2-methyl-6-(5-methyl-1,3,4-oxadiazol-2-yl)morpholine] | 10 to 100 |
| CC1C(C(N)=O)NCCN1c1ccnc(-c2cnc3ccc(C(F)(F)F)cn23)n1 (stereo not drawn) [I-380, 3-methyl-4-{2-[6-(trifluoromethyl)imidazo[1,2-a]pyridin-3-yl]pyrimidin-4-yl}piperazine-2-carboxamide] | < 10 |
| C[C@@H]1CN(c2ccnc(-c3cnc4ccc(C(F)(F)F)cn34)n2)[C@H](C)[C@H](c2cn[nH]c2)N1 (stereo in doubt) [I-38, 3-[4-[2,5-dimethyl-3-(1H-pyrazol-4-yl)piperazin-1-yl]pyrimidin-2-yl]-6-(trifluoromethyl)imidazo[1,2-a]pyridine] | 10 to 100 |
